Activity calls are given as the source filed them. The rule behind the calls is not given here.
Legend:
[1] = target: T1, Coagulation factor XII (Homo sapiens) (UniProt P00748); assay: Inhibition of factor 12a (unknown origin) at IC50 using kallikrein chromogenic substrate preincubated for 1 min followed by chromogenic substrate addition and measured for 2 mins in presence of AT-III; conditions: time 3.0 min
T1 sequence (whole entry): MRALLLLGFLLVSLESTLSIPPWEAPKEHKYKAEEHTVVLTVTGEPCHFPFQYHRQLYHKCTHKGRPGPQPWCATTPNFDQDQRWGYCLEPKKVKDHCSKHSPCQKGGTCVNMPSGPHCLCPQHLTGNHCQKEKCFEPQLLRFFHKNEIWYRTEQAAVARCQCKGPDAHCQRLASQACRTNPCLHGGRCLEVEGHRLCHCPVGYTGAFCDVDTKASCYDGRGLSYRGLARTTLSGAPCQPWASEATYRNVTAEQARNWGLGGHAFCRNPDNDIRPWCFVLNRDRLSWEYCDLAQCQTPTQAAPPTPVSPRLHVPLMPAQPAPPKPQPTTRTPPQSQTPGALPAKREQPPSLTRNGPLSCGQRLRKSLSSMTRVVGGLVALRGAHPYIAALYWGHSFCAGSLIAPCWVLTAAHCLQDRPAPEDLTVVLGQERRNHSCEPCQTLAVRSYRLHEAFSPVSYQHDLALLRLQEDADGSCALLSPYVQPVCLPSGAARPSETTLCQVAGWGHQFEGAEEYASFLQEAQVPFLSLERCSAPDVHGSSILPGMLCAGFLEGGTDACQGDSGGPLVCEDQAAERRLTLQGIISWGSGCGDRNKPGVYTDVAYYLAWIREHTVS

[2] = target: Prothrombin (Homo sapiens) (UniProt P00734); assay: Inhibition of factor 2a (unknown origin) at IC50 preincubated for 1 min followed by chromogenic substrate addition and measured for 2 mins; conditions: time 3.0 min
[3] = target: Coagulation factor X (Homo sapiens) (UniProt P00742); assay: Inhibition of factor 10a (unknown origin) at IC90 preincubated for 1 min followed by chromogenic substrate addition and measured for 2 mins in presence of AT-III relative to control; conditions: time 3.0 min
[4] = target: Coagulation factor XI (Homo sapiens) (UniProt P03951); assay: Inhibition of factor 11a (unknown origin) at IC50 using S-2366 as substrate preincubated for 1 min followed by chromogenic substrate addition and measured for 2 mins in presence of AT-III; conditions: time 3.0 min
Plasma [5] = assay: Induction of platelet aggregation in human platelet rich plasma at plasma peak concentration of 10 times anti-thrombosis ED50 measured after 10 mins by light transmission aggregometry
Coagulation factor IX [6] = target: T2, Coagulation factor IX (Homo sapiens, UniProt P00740); assay: Inhibition of factor 9a (unknown origin) binding to immobilized biotinylated oHG-11 assessed as activity potency of oligosaccharides multiplied by the percentage of oligosaccharides in dHG-5 by biolayer interferometry relative to dHG-5
[7] = target: T3, Coagulation factor IX/VIII (Homo sapiens) (UniProt P00740+P00451); assay: Inhibition of human citrated plasma iXase (factor 8a-factor 9a complex) assessed as activity potency of oligosaccharides multiplied by the percentage of oligosaccharides in dHG-5 preincubated for 2 mins followed by factor 10 addition and measured after 1 min by FXa chromogenic substrate SXa-11 based assay relative to dHG-5; assay type: protein-complex assay; conditions: time 3.0 min
[8] = target: Prothrombin (Homo sapiens) (UniProt P00734); assay: Inhibition of factor 2a (unknown origin) at IC50 preincubated for 1 min followed by chromogenic substrate addition and measured for 2 mins in presence of AT-III; conditions: time 3.0 min
Rattus norvegicus [9] = assay: Antithrombotic activity in thromboplastin and stasis-induced Sprague-Dawley rat deep venous thrombosis model assessed as reduction in venous thrombosis at 1.52 mg/kg, sc administered 1 hr prior to thromboplastin addition for 20 secs followed by establishment of stasis for 20 mins; assay type: functional; conditions: 1.339 h, time 80.33 min
[10] = target: Coagulation factor X (Homo sapiens) (UniProt P00742); assay: Inhibition of factor 10a (unknown origin) at IC50 preincubated for 1 min followed by chromogenic substrate addition and measured for 2 mins; conditions: time 3.0 min
Coagulation factor IX [11] = target: T2, Coagulation factor IX; assay: Inhibition of factor 9a (unknown origin) binding to immobilized biotinylated oHG-11 by biolayer interferometry relative to dHG-5
[12] = target: T1, Coagulation factor XII (Homo sapiens); assay: Inhibition of factor 12a (unknown origin) at IC50 using kallikrein chromogenic substrate preincubated for 1 min followed by chromogenic substrate addition and measured for 2 mins; conditions: time 3.0 min
[13] = target: T3, Coagulation factor IX/VIII (Homo sapiens); assay: Inhibition of human citrated plasma iXase (factor 8a-factor 9a complex) preincubated for 2 mins followed by factor 10 addition and measured after 1 min by FXa chromogenic substrate SXa-11 based assay relative to dHG-5; assay type: protein-complex assay; conditions: time 3.0 min
Plasma [14] = assay: (§1) Anticoagulation activity in human plasma assessed as drug level causing 20 times doubling of APTT preincubated for 2 mins followed by APTT reagent and measured after 3 mins by coagulometric method relative to dHG-5; assay type: functional; conditions: time 5 min
[15] = target: Coagulation factor X (Homo sapiens) (UniProt P00742); assay: Inhibition of factor 10a (unknown origin) at IC50 preincubated for 1 min followed by chromogenic substrate addition and measured for 2 mins in presence of AT-III; conditions: time 3.0 min
[16] = target: Prothrombin (Homo sapiens) (UniProt P00734); assay: Inhibition of factor 2a (unknown origin) at IC90 preincubated for 1 min followed by chromogenic substrate addition and measured for 2 mins in presence of AT-III; conditions: time 3.0 min
[17] = target: Coagulation factor XI (Homo sapiens) (UniProt P03951); assay: Inhibition of factor 11a (unknown origin) at IC50 using S-2366 as substrate preincubated for 1 min followed by chromogenic substrate addition and measured for 2 mins; conditions: time 3.0 min
[18] = target: T4, Coagulation factor VII (Homo sapiens) (UniProt P08709); assay: Inhibition of factor 7a (unknown origin) at IC50 using pefachrome factor VIIa as substrate preincubated for 1 min followed by chromogenic substrate addition and measured for 2 mins in presence of AT-III; conditions: time 3.0 min
T4 sequence (whole entry): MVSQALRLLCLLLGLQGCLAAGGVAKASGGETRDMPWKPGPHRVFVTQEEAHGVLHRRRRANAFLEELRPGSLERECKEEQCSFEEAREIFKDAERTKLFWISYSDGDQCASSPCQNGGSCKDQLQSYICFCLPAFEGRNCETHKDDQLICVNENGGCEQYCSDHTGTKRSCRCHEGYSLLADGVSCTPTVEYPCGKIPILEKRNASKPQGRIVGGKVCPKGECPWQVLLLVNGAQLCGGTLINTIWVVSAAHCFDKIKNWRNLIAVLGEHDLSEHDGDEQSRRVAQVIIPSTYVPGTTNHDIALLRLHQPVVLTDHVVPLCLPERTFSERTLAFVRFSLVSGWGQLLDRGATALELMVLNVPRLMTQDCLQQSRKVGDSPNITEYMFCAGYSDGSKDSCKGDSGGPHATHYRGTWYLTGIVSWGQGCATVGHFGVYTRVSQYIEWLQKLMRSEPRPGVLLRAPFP

Plasma [19] = assay: Anticoagulation activity in AT-III-deficient human plasma preincubated for 2 mins followed by APTT reagent and measured after 3 mins by coagulometric method; assay type: functional, cell-free; conditions: time 5.0 min
Plasma [20] = assay: Induction of platelet aggregation in rat wash platelet at plasma peak concentration of 10 times anti-thrombosis ED50 measured after 10 mins by light transmission aggregometry
Plasma [21] = assay: Anticoagulation activity in HCII-deficient human plasma preincubated for 2 mins followed by APTT reagent and measured after 3 mins by coagulometric method; assay type: functional, cell-free; conditions: time 5.0 min
[22] = target: T4, Coagulation factor VII (Homo sapiens); assay: Inhibition of factor 7a (unknown origin) at IC50 using pefachrome factor VIIa as substrate preincubated for 1 min followed by chromogenic substrate addition and measured for 2 mins; conditions: time 3.0 min
[23] = target: Coagulation factor XI (Homo sapiens) (UniProt P03951); assay: Inhibition of factor 11a (unknown origin) at IC90 using S-2366 as substrate preincubated for 1 min followed by chromogenic substrate addition and measured for 2 mins in presence of AT-III; conditions: time 3.0 min
Plasma [24] = assay: as §1, with “of APTT by measuring activity potency of oligosaccharides multiplied by the percentage of oligosaccharides in dHG-5 preincubated for” for “of APTT preincubated for”; assay type: functional; conditions: time 5 min
Rattus norvegicus [25] = assay: Antithrombotic activity in thromboplastin and stasis-induced Sprague-Dawley rat deep venous thrombosis model assessed as reduction in venous thrombosis at 1.52 mg/kg, sc administered 1 hr prior to thromboplastin addition for 20 secs followed by establishment of stasis for 20 mins relative to dHG-5; assay type: functional; conditions: time 80.33 min, 1.339 h
Rattus norvegicus [26] = assay: Antithrombotic activity in thromboplastin and stasis-induced Sprague-Dawley rat deep venous thrombosis model assessed as reduction in venous thrombosis by measuring activity potency of oligosaccharides multiplied by the percentage of oligosaccharides in dHG-5 at 1.52 mg/kg, sc administered 1 hr prior to thromboplastin addition for 20 secs followed by establishment of stasis for 20 mins relative …; assay type: functional; conditions: time 80.33 min, 1.339 h

Coagulation factor XI (Homo sapiens), sequence (P03951 19-387 limits assumed): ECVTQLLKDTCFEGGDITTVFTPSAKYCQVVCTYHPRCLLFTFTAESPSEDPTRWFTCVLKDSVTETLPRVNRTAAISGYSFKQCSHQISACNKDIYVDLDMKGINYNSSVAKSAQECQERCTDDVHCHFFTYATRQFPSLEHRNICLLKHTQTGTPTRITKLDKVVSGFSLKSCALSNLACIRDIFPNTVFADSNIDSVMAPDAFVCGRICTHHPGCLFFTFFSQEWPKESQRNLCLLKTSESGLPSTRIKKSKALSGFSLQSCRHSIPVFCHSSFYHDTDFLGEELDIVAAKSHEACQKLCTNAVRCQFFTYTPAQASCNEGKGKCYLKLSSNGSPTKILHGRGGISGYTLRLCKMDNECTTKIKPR
Coagulation factor XI (Homo sapiens), sequence (P03951 388-625 limits assumed): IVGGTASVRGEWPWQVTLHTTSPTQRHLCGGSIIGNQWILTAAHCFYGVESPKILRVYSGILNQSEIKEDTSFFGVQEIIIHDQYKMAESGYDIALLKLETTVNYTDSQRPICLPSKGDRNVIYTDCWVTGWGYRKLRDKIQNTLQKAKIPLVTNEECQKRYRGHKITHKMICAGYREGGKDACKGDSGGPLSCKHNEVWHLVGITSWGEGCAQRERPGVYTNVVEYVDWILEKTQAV
Coagulation factor X (Homo sapiens), sequence (P00742 41-179 limits assumed): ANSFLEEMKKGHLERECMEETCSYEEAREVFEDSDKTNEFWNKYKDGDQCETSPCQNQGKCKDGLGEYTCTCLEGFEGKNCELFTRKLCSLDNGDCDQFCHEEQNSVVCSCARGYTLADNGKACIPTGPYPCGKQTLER
Coagulation factor X (Homo sapiens), sequence (P00742 235-488 limits assumed): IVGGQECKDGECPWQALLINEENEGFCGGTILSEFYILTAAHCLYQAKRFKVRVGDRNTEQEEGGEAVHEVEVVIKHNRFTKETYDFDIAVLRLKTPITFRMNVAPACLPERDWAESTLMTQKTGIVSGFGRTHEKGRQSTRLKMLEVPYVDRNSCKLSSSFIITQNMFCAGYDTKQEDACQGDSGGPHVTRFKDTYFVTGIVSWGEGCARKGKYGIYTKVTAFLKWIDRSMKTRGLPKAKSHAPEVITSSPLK
T2 sequence (P00740 47-191 limits assumed): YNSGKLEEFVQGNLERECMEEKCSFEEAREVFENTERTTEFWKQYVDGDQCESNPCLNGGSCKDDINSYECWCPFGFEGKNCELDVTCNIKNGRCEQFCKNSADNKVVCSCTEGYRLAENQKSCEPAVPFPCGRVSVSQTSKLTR
T2 sequence (P00740 227-461 limits assumed): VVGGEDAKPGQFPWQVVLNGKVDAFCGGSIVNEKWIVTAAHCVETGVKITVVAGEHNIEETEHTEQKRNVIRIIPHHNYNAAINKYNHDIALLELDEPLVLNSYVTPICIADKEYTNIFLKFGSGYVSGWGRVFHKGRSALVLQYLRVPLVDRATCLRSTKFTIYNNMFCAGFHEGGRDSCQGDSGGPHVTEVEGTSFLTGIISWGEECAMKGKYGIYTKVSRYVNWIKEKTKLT

CC(=O)N[C@H]1[C@H](O[C@@H]([C@H](O[C@@H]2O[C@@H](C)[C@@H](OS(=O)(=O)[O-])[C@@H](OS(=O)(=O)O)[C@@H]2O)[C@@H](O)CO)[C@H](O)C(=O)[O-])O[C@H](COS(=O)(=O)[O-])[C@H](OS(=O)(=O)[O-])[C@@H]1O[C@@H]1O[C@H](C(=O)[O-])[C@@H](O[C@@H]2O[C@H](COS(=O)(=O)[O-])[C@H](OS(=O)(=O)[O-])[C@H](O[C@@H]3O[C@H](C(=O)[O-])[C@@H](O[C@@H]4O[C@H](COS(=O)(=O)[O-])[C@H](OS(=O)(=O)[O-])[C@H](O[C@@H]5O[C@H](C(=O)[O-])[C@@H](O[C@@H]6O[C@H](COS(=O)(=O)[O-])[C@H](OS(=O)(=O)[O-])[C@H](O[C@@H]7O[C@H](C(=O)[O-])[C@@H](O[C@@H]8O[C@H](COS(=O)(=O)[O-])[C@H](OS(=O)(=O)[O-])[C@H](O[C@@H]9O[C@H](C(=O)[O-])[C@@H](O[C@@H]%10O[C@H](COS(=O)(=O)[O-])[C@H](OS(=O)(=O)[O-])[C@H](O[C@@H]%11O[C@H](C(=O)[O-])[C@@H](O[C@@H]%12O[C@H](COS(=O)(=O)[O-])[C@H](OS(=O)(=O)[O-])[C@H](O[C@@H]%13O[C@H](C(=O)[O-])[C@@H](O[C@@H]%14O[C@H](COS(=O)(=O)[O-])[C@H](OS(=O)(=O)[O-])[C@H](O[C@@H]%15O[C@H](C(=O)[O-])[C@@H](O[C@@H]%16O[C@H](COS(=O)(=O)[O-])[C@H](OS(=O)(=O)[O-])[C@H](O[C@@H]%17OC(C(=O)O)=C[C@H](O[C@@H]%18O[C@@H](C)[C@@H](OS(=O)(=O)[O-])[C@@H](OS(=O)(=O)O)[C@@H]%18O)[C@H]%17O)[C@H]%16NC(C)=O)[C@H](O[C@@H]%16O[C@@H](C)[C@@H](OS(=O)(=O)[O-])[C@@H](OS(=O)(=O)O)[C@@H]%16O)[C@H]%15O)[C@H]%14NC(C)=O)[C@H](O[C@@H]%14O[C@@H](C)[C@@H](OS(=O)(=O)[O-])[C@@H](OS(=O)(=O)O)[C@@H]%14O)[C@H]%13O)[C@H]%12NC(C)=O)[C@H](O[C@@H]%12O[C@@H](C)[C@@H](OS(=O)(=O)[O-])[C@@H](OS(=O)(=O)O)[C@@H]%12O)[C@H]%11O)[C@H]%10NC(C)=O)[C@H](O[C@@H]%10O[C@@H](C)[C@@H](OS(=O)(=O)[O-])[C@@H](OS(=O)(=O)O)[C@@H]%10O)[C@H]9O)[C@H]8NC(C)=O)[C@H](O[C@@H]8O[C@@H](C)[C@@H](OS(=O)(=O)[O-])[C@@H](OS(=O)(=O)O)[C@@H]8O)[C@H]7O)[C@H]6NC(C)=O)[C@H](O[C@@H]6O[C@@H](C)[C@@H](OS(=O)(=O)[O-])[C@@H](OS(=O)(=O)O)[C@@H]6O)[C@H]5O)[C@H]4NC(C)=O)[C@H](O[C@@H]4O[C@@H](C)[C@@H](OS(=O)(=O)[O-])[C@@H](OS(=O)(=O)O)[C@@H]4O)[C@H]3O)[C@H]2NC(C)=O)[C@H](O[C@@H]2O[C@@H](C)[C@@H](OS(=O)(=O)[O-])[C@@H](OS(=O)(=O)O)[C@@H]2O)[C@H]1O.[Na+].[Na+].[Na+].[Na+].[Na+].[Na+].[Na+].[Na+].[Na+].[Na+].[Na+].[Na+].[Na+].[Na+].[Na+].[Na+].[Na+].[Na+].[Na+].[Na+].[Na+].[Na+].[Na+].[Na+].[Na+].[Na+].[Na+].[Na+].[Na+].[Na+].[Na+].[Na+].[Na+].[Na+].[Na+].[Na+].[Na+]
inhibition [1]: inactive | inhibition [2]: inactive | inhibition [3]: inactive | inhibition [4]: inactive | Activity (Plasma [5]): Not Active | Ratio (Coagulation factor IX [6]): 4.46 U | Ratio [7]: 14.1 U | inhibition [8]: inactive | inhibition in vivo at 1.52 mg/kg (Rattus norvegicus [9]): 36.4% | inhibition [10]: inactive | Ratio (Coagulation factor IX [11]): 151 U | inhibition [12]: inactive | Ratio [13]: 478 U | Ratio (Plasma [14]): 426.19 U | inhibition [15]: inactive | inhibition [16]: Active | inhibition [17]: inactive | inhibition [18]: inactive | Activity (Plasma [19]): Active | Activity (Plasma [20]): Not Active | Activity (Plasma [21]): Active | inhibition (active/not active) [22]: inactive | inhibition [23]: Active | Ratio (Plasma [24]): 12.57 U | Ratio (Rattus norvegicus [25]): 233.18 U | Ratio (Rattus norvegicus [26]): 7 U
